Results on 18 compounds are retold here after ChEMBL document CHEMBL2434930, “Design, synthesis and biological evaluation of novel anti-cytokine 1,2,4-triazine derivatives” (Bioorg Med Chem, 2013).

Data set [1] has as its system PBMC. As to the kind of experiment: Antiinflammatory activity in human PBMC assessed as inhibition of LPS-induced TNFalpha production at 10 uM treated 30 mins before LPS challenge measured after 6 hrs by ELISA. The class given is functional.
For data set [2], the system named is PBMC. In words: Antiinflammatory activity in human PBMC assessed as inhibition of LPS-induced IL1-beta production at 10 uM treated 30 mins before LPS challenge measured after 6 hrs by ELISA. The class given is functional.
Data set [3] relates to PBMC. As to the kind of experiment: Cytotoxicity against human PBMC assessed as cell viability at 10 to 20 uM by MTT assay. In kind it is cell-based.
The test system of another data set is MCF7. As to the kind of experiment: Cytotoxicity against human MCF7 cells assessed as cell viability at 10 to 20 uM by MTT assay. In kind it is cell-based. The settings on record: mcf7, 20 µM.
The target of data set [4] is T1, MAP kinase p38 (Homo sapiens) (UniProt O15264+Q15759+Q16539+P53778). As to the kind of experiment: Inhibition of etoposide-induced p38 MAPK activation in human MCF7 cells assessed as phosphorylated ATF-2 level at 20 uM treated 30 mins before etoposide challenge measured after 3 hrs by Western blot analysis. In kind it is cell-based.
Data set [5] deals with Rattus norvegicus. As to the kind of experiment: Antiinflammatory activity in rat assessed as inhibition of carrageenan-induced paw edema at 10 mg/kg, ip administered 1 hr before carrageenan challenge measured at 1 hr relative to control. The class given is functional. Conditions: route intraperitoneal.
Data set [6] deals with Rattus norvegicus. In words: Antiinflammatory activity in rat assessed as inhibition of carrageenan-induced paw edema at 10 mg/kg, ip administered 1 hr before carrageenan challenge measured at 2 hrs relative to control. In kind it is functional. The settings on record: route intraperitoneal.
Data set [7] has as its target T1, MAP kinase p38 (Homo sapiens). As to the kind of experiment: Inhibition of etoposide-induced p38 MAPK activation in human MCF7 cells at 20 uM treated 30 mins before etoposide challenge measured after 3 hrs by Western blot analysis. The class given is cell-based.
Data set [8] deals with Rattus norvegicus. As to the kind of experiment: Antiinflammatory activity in rat assessed as inhibition of carrageenan-induced paw edema at 10 mg/kg, ip administered 1 hr before carrageenan challenge measured at 4 hrs relative to control. The settings on record: route intraperitoneal. In kind it is functional.
Data set [9] relates to Rattus norvegicus. As to the kind of experiment: Antiinflammatory activity in rat assessed as inhibition of carrageenan-induced paw edema at 10 mg/kg, ip administered 1 hr before carrageenan challenge measured at 3 hrs relative to control. In kind it is functional. The settings on record: route intraperitoneal.
The test system of data set [10] is Rattus norvegicus. As to the kind of experiment: Antiinflammatory activity in rat assessed as inhibition of carrageenan-induced paw edema at 50 mg/kg, ip administered 1 hr before carrageenan challenge measured at 1 hr relative to control. In kind it is functional. The settings on record: route intraperitoneal.
For data set [11], the system named is Rattus norvegicus. As to the kind of experiment: Antiinflammatory activity in rat assessed as inhibition of carrageenan-induced paw edema at 50 mg/kg, ip administered 1 hr before carrageenan challenge measured at 3 hrs relative to control. In kind it is functional. The settings on record: route intraperitoneal.
Data set [12] relates to Rattus norvegicus. As to the kind of experiment: Antiinflammatory activity in rat assessed as inhibition of carrageenan-induced paw edema at 50 mg/kg, ip administered 1 hr before carrageenan challenge measured at 4 hrs relative to control. In kind it is functional. The settings on record: route intraperitoneal.
Data set [13] has as its system Rattus norvegicus. As to the kind of experiment: Antiinflammatory activity in rat assessed as inhibition of carrageenan-induced paw edema at 50 mg/kg, ip administered 1 hr before carrageenan challenge measured at 2 hrs relative to control. In kind it is functional. Conditions: route intraperitoneal.

The structures appear in SMILES notation. Active and inactive are the calls of the source. No cut-off for these calls is given here.

`COc1ccc(/C=N/Nc2nnc(-c3ccc(OC)cc3)c(-c3ccc(OC)cc3)n2)cc1`: the inhibition at 10 µM came out at 48.5% in the data set with PBMC [1] and 35.9% with PBMC [2]. The Activity entry in the data set on PBMC [3] and in the data set with MCF7 was “Non-toxic” each time.

For `COc1ccc(-c2nnc(N/N=C/c3cccc(OC)c3OC)nc2-c2ccc(OC)cc2)cc1`, the inhibition at 10 µM with PBMC [1] is 71.8%; in the data set on PBMC [2] it was 89.8%. Besides, the inhibition result in [4] was “Active”. In addition, the Activity result in the data set with PBMC [3] and in the data set with MCF7 was “Non-toxic” each time. Further, the inhibition in vivo at 10 mg/kg in the data set with Rattus norvegicus [5] amounted to 38.8%; in the data set with Rattus norvegicus [6], 45.3%; in the data set on Rattus norvegicus [8], 75.6%; in the data set with Rattus norvegicus [9], 64.2%. The inhibition result in data set [7] was “inactive”.

On to `COc1ccc(-c2nnc(N/N=C/c3ccc4c(c3)OCO4)nc2-c2ccc(OC)cc2)cc1`, for which the inhibition at 10 µM with PBMC [1] was found to be 52.2%; in the data set with PBMC [2] it was 86.9%. Besides, the Activity result in the data set with PBMC [3] and in the data set on MCF7 was “Non-toxic” each time.

As for `COc1ccc(-c2nnc(N/N=C/c3cccc(O)c3O)nc2-c2ccc(OC)cc2)cc1`, the inhibition at 10 µM in the data set with PBMC [1] was 46.7%; in the data set with PBMC [2], 78.2%. Also, the Activity entry with PBMC [3] and in the data set with MCF7 was “Non-toxic” throughout.

With `COc1ccc(-c2nnc(N/N=C/c3ccc(O)c(OC)c3)nc2-c2ccc(OC)cc2)cc1`, the inhibition at 10 µM with PBMC [1] came out at 46.1%; in the data set on PBMC [2], 84.3%. In addition, the Activity result in the data set with PBMC [3] and with MCF7 was “Non-toxic” throughout.

For `COc1ccc(-c2nnc(N/N=C/c3ccncc3)nc2-c2ccc(OC)cc2)cc1`, the inhibition at 10 µM with PBMC [1] is 41.8%; in the data set on PBMC [2] it was 60.8%. In addition, the Activity result in the data set on PBMC [3] and with MCF7 was “Non-toxic” in each case.

For `COc1ccc(-c2nnc(N/N=C/c3cc4ccccc4[nH]3)nc2-c2ccc(OC)cc2)cc1`, the inhibition at 10 µM in the data set with PBMC [1] came to 53.3%; in the data set with PBMC [2], 82.3%. Also, the Activity result in the data set on PBMC [3] and with MCF7 was “Non-toxic” each time.

For `COc1ccc(-c2nnc(N/N=C/c3cccs3)nc2-c2ccc(OC)cc2)cc1`, the inhibition at 10 µM with PBMC [1] came out at 57.5%; in the data set on PBMC [2], 81.8%. Further, the Activity result in the data set with PBMC [3] and in the data set on MCF7 was “Non-toxic” throughout.

On to `Oc1ccc(-c2nc(-c3ccc(F)cc3)c(-c3ccncc3)[nH]2)cc1` [SB-202190], for which the inhibition at 10 µM came to 87.2% with PBMC [1] and 93.4% in the data set on PBMC [2].

Regarding `COc1ccc(-c2nnc(N/N=C/c3ccc(F)cc3)nc2-c2ccc(OC)cc2)cc1`, the inhibition at 10 µM with PBMC [1] was found to be 34.5%; in the data set with PBMC [2] it was 27.9%. Besides, the Activity result in the data set with PBMC [3] and in the data set on MCF7 was “Non-toxic” in each case.

On to `COc1ccc(-c2nnc(N/N=C/c3ccc(Cl)cc3Cl)nc2-c2ccc(OC)cc2)cc1`, for which the inhibition at 10 µM was 70% with PBMC [1] and 86.9% in the data set on PBMC [2]. For the same compound, the Activity entry in the data set on PBMC [3] and in the data set with MCF7 was “Non-toxic” in each case.

Consider `COc1ccc(-c2nnc(N/N=C/c3ccco3)nc2-c2ccc(OC)cc2)cc1`, for which the inhibition at 10 µM in the data set on PBMC [1] was found to be 71.1%; in the data set with PBMC [2] it was 84%. Further, the Activity entry with PBMC [3] and in the data set on MCF7 was “Non-toxic” throughout.

For the compound `COc1ccc(-c2nnc(N/N=C/c3ccc([N+](=O)[O-])cc3)nc2-c2ccc(OC)cc2)cc1`, the inhibition at 10 µM is 37.6% in the data set with PBMC [1] and 15.5% in the data set with PBMC [2]. Further, the Activity entry in the data set with PBMC [3] and with MCF7 was “Non-toxic” each time.

For `COc1ccc(-c2nnc(N/N=C/c3c(Cl)cccc3[N+](=O)[O-])nc2-c2ccc(OC)cc2)cc1`, the inhibition at 10 µM was determined as 47.9% in the data set on PBMC [1] and 2.81% in the data set on PBMC [2]. The Activity entry in the data set with PBMC [3] and in the data set with MCF7 was “Non-toxic” each time.

In the case of `COc1ccc(-c2nnc(N/N=C/c3ccccc3)nc2-c2ccc(OC)cc2)cc1`, the inhibition at 10 µM was found to be 53.1% with PBMC [1] and 71.5% in the data set on PBMC [2]. The Activity result in the data set with PBMC [3] and with MCF7 was “Non-toxic” throughout.

`COc1ccc2c(c1)c(CC(=O)O)c(C)n2C(=O)c1ccc(Cl)cc1` [INDOMETHACIN]: the inhibition in vivo at 50 mg/kg is 19.2% with Rattus norvegicus [10], 48.2% in the data set on Rattus norvegicus [11], 68.2% in the data set on Rattus norvegicus [12] and 28.4% with Rattus norvegicus [13].

As to `COc1ccc(-c2nnc(N/N=C/c3ccc(O)cc3O)nc2-c2ccc(OC)cc2)cc1`, the inhibition at 10 µM was found to be 32.7% in the data set on PBMC [1] and 51.8% in the data set with PBMC [2]. For the same compound, the Activity entry in the data set with PBMC [3] and with MCF7 was “Non-toxic” throughout.

For the compound `COc1ccc(-c2nnc(N/N=C/c3ccc(OC)c(OC)c3)nc2-c2ccc(OC)cc2)cc1`, the inhibition at 10 µM in the data set on PBMC [1] came out at 45%; with PBMC [2], 39.9%. Moreover, the Activity entry with PBMC [3] and with MCF7 was “Non-toxic” in each case.
